Measurements: publication PMC10428205, “Cytotoxicity of Ruthenium(II) Arene Complexes Containing Functionalized Ferrocenyl β-Diketonate Ligands” (Organometallics, 2023)
Where two headings read alike, the source gives them in different places.

Columns and labels:
MIA PaCa-2 [1] = assay type: cell-based
Method: (§1) LogP = Log ( [C]final ) Eqn1
(§2) 96 h Chemosensitivity Studies
(§3) In vitro chemosensitivity tests were performed at both the University of Huddersfield and the Institute of Cancer Therapeutics, Bradford, in a sterile Class II Biological Safety Cabinet fitted with a HEPA filtered laminar airflow.
Cellular assays were conducted against human pancreatic carcinoma (MIA PaCa-2), human colorectal carcinoma p53-wildtype (HCT116 p53+/+), and human non-cancerous epithelial retinal cells (ARPE-19). […]
were obtained from the American Type Culture Collection and provided by the University of Huddersfield. All cell lines were routinely maintained as monolayer cultures in appropriate complete medium and maintained in either […]
T-25 or T-75 flasks at 37 °C and 5% CO2.
10% foetal calf serum. All medium was supplemented with sodium pyruvate (1 mM) and L-glutamine (2 mM), and prior to chemosensitivity studies, cell monolayers were passaged using Trypsin-EDTA and diluted to a […]
cells/mL cell suspension was added to each well and incubated for 24 h at 37 °C and 5% CO2. After 24 h, 100 mL of drug dilutions (fresh 100 mM stock solutions in DMSO) in media were added to the plates and then incubated for a further 96 h at 37°C and 5% CO2 (48 h + 48 h recovery period were used for the shorter exposures with MIA PaCa-2 cells only). After 96 h, 20 mL MTT (3-(4,5-dimethylthiazol-2-yl)-2,5-diphenyltetrazolium bromide, 5 mg/mL) was added to each well and incubated for 3 h at 37 °C and 5% CO2. All solutions were then removed from the 96-well plates via pipette and […] of DMSO added to each well to dissolve the purple formazan […]
FC spectrophotometer microplate reader. Using the blank and 100% cell controls, the % cell viability was determined [(abs. of compound containing wells – abs. media wells)/(abs. 100% cell suspension well control)] and from this the % cell death (100%- % cell viability) was calculated. On a logarithmic scale, the percentage cell death was plotted against the concentration of compound, and from this the half maximal inhibitory concentration (IC50) value was determined. Each of the experiments were performed in triplicate with mean values being stated as the IC50 ± Standard Deviation (SD). […]

MIA PaCa-2 [2] = test: 24 and 48 h chemosensitivity (MTT, with recovery period); assay type: cell-based, human
Method: as §1, §2, §3
Cellular assays were conducted against human pancreatic carcinoma (MIA PaCa-2), human colorectal carcinoma p53-wildtype (HCT116 p53+/+), and human non-cancerous epithelial retinal cells (ARPE-19). The ARPE-19 cells were obtained from the American Type Culture Collection and provided by the University of Huddersfield. All cell lines were routinely maintained as monolayer cultures in appropriate complete medium and maintained in either T-25 or T-75 flasks at 37 °C and 5% CO2. MIA PaCa-2 and ARPE-19 cells were cultured in high glucose DMEM-F12 medium containing 10% foetal calf serum, and HCT116 p53+/+ was cultured in RPMI 1640 supplemented with 10% foetal calf serum. All medium was supplemented with sodium pyruvate (1 mM) and L-glutamine (2 mM), and prior to chemosensitivity studies, cell monolayers were passaged using Trypsin-EDTA and diluted to a concentration of 1 x 10^4 cells/mL. All assays were conducted using 96-well plates, in which […] of the 1 x 10^4 cells/mL cell suspension was added to each well and incubated for 24 h at 37 °C and 5% CO2. After 24 h, 100 mL of drug dilutions (fresh 100 mM stock solutions in DMSO) in media were added to the plates and then incubated for a further 96 h at 37°C and 5% CO2 (48 h + 48 h recovery period were used for the shorter exposures with MIA PaCa-2 cells only). After 96 h, 20 mL MTT (3-(4,5-dimethylthiazol-2-yl)-2,5-diphenyltetrazolium bromide, 5 mg/mL) was added to each well and incubated for 3 h at 37 °C and 5% CO2. All solutions were then removed from the 96-well plates via pipette and […] of DMSO added to each well to dissolve the purple formazan crystals. After mixing well, the absorbance of each well was measured at 540 nm using a ThermoFisher Multiskan FC spectrophotometer microplate reader. Using the blank and 100% cell controls, the % cell viability was determined [(abs. of compound containing wells – abs. media wells)/(abs. 100% cell suspension well control)] and from this the % cell death (100%- % cell viability) was calculated. On a logarithmic scale, the percentage cell death was plotted against the concentration of compound, and from this the half maximal inhibitory concentration (IC50) value was determined. Each of the experiments were performed in triplicate with mean values being stated as the IC50 ± Standard Deviation (SD).
24 and 48 h Chemosensitivity Studies
The same experimental protocol described for the 96 h MTT assay was used, and the MIA PaCa-2 cells were incubated for either 24 or 48 h, with a 72 or 48 h recovery period respectively. […]
All assays were conducted in triplicate.

[3] = 96 h MTT, normoxic, ± SD, read-out: IC50 against MIA PaCa-2
[4] = MIA PaCa-2, 24 h exposure + 72 h recovery, read-out: IC50 values ± SD, 24 h
[5] = MIA PaCa-2, 48 h exposure + 48 h recovery, read-out: IC50 values ± SD, 48 h

Row | IC50 (MIA PaCa-2 [1]; [3]) [µM] | IC50 (MIA PaCa-2 [1]; MIA PaCa-2, 96 h, read-out: IC50 values ± SD (Table S14)) [µM] | IC50 (MIA PaCa-2 [2]; [4]) [µM] | IC50 (MIA PaCa-2 [2]; [5]) [µM] | SMILES | Selectivity index (SI), IC50 ARPE-19 / IC50 MIA PaCa-2 (MIA PaCa-2 [1]; 96 h, * = minimum value as at least one IC50 > 100)
1 | 3.6 ± 0.7 | 3.6 ± 0.7 | > 100 | 76 ± 3 | [NH2][Pt]([NH2])([Cl])[Cl] [CDDP, cisplatin, reference compound] | 1.7
2 | 59 ± 2 | – | 76 ± 3 | 61 ± 1 | CC(O)=CC(=O)[c-]1cccc1.[Fe+2].c1cc[cH-]c1 [Complex L1] | –
3 | 38.7 ± 0.8 | – | > 100 | 68 ± 3 | O=C(C=C(O)c1ccccc1)[c-]1cccc1.[Fe+2].c1cc[cH-]c1 [Complex L2] | –
4 | 17 ± 1 | – | > 100 | 20 ± 1 | O=C(C=C(O)C(F)(F)F)[c-]1cccc1.[Fe+2].c1cc[cH-]c1 [Complex L7] | –
